The values that follow are results of earlier work, collected in patent US20100183739A1, “Treatment and prevention of systemic bacterial infections in plants using antimicrobial metal compositions” (priority 2009, published 2010).

This series concerns bacteria. As to conditions: Appl Environ Microbiol. 2008; 74(7): 2171-2178.

Consider `[Ag+]` [silver ion], for which the “silver ion concentration for inhibition of bacterial growth” value is listed as “below 5 ppm”.
